This is an account of results in article PMC7284125, “Identification of annotated bioactive molecules that impair motility of the blood fluke Schistosoma mansoni” (International Journal for Parasitology: Drugs and Drug …, 2020).

Assay type in all cases: cell-based, Schistosoma mansoni
The test system of series [1] is S. mansoni schistosomulae. Briefly: Phenotypic primary screen assay on schistosomulae (phenotype; viability by methylene blue dye exclusion). The settings on record: for Viability (%) / Phenotype: three-day-old schistosomulae, 10 μM, 24 h; for Viability (%): calculated 5 days post compound exposure; for Phenotype: estimated 5 days post compound exposure. Here is the method: Puerto Rican strain Biomphalaria glabrata snails infected with S. mansoni were kindly provided by Dr. Fred Lewis (Biomedical Research Institute and BEI Resources, MD, USA). Schistosomulae were obtained by exposing six to eight weeks-old snails to continuous light for 2 h at 32 °C. […] At this point, animals with internal dark granulations and with no observable body contraction/relaxation cycles were considered dead.
Schistosomulae were monitored under a stereo microscope (SMZ1270, Nikon). Phenotypic observations were made by analyzing schistosomulae, 24 h after drug addition to assess any immediate effect and five days post-compound exposure to observe long-term impacts on both the movement and overall body shape in comparison to control animals exposed to DMSO only.

In series [2] the test system is S. mansoni schistosomulae. Briefly: Motility assay on schistosomulae (pixel displacement, relative to DMSO control). The settings on record: for Fractional motility: schistosomulae. As for the experimental part:
Puerto Rican strain Biomphalaria glabrata snails infected with S. mansoni were kindly provided by Dr. Fred Lewis (Biomedical Research Institute and BEI Resources, MD, USA). Schistosomulae were obtained by exposing six to eight weeks-old snails to continuous light for 2 h at 32 °C. The resulting suspension of cercaria was then mechanically transformed as described ([Lewis, 2001]) and cultured in Opti-MEM/antibiotics (Thermo Fisher Scientific, Waltham, MA) containing 100 μg/mL streptomycin and 100 units/ml penicillin supplemented with 5% fetal bovine serum (FBS; Thermo Fisher). Parasite cultures were incubated at 37 °C with 5% CO2 for at least 10 days with no apparent loss of viability. At this point, animals with internal dark granulations and with no observable body contraction/relaxation cycles were considered dead.
(§1) Schistosomulae (200/well) and adult parasites (unpaired worms) were maintained in 300 μL OPTI-MEM with 5% dialyzed FBS (without antibiotics) and exposed to compounds at 1 and 10 μM for 24 h. A kinetic assay consisting of 1, 3, 6 and 12 h incubation times was performed on selected hits by motility monitoring using a stereo microscope (SMZ1270, Nikon) for adults and an inverted microscope for schistosomulae (eclipse TE2000-U, Nikon) connected to a monochrome camera (DS-Qi2, Nikon) for image acquisition. Images were recorded at a rate of 10 frames/s for a period of 1 min and videos were analyzed using ImageJ software (version 1.41, NIH, USA). Parasite movement quantification and data analysis protocols were applied using the pixel displacement method ([Patocka et al., 2014]; [Rashid et al., 2015]) and compared to control parasites treated with DMSO. Parasites were then washed several times in Opti-MEM, 5% FBS and incubated up to an additional three days (schistosomulae) or five days (adult worms) at 37 °C, 5% CO2 and motility was recorded as described above.

A further series deals with S. mansoni adult worms. Briefly: Motility assay on adult parasites (pixel displacement, relative to DMSO control). To be noted: 10 μM; for motility phenotype in words: adults, long-term after washout; for Fractional motility: secondary screen. As for the experimental part: Adult parasites were collected from 40 day-old female CD1 mice (Charles River) previously inoculated by the tail infection method ([Lewis, 2001]). Six weeks post-infection, mice were sacrificed, and adult worms extracted after perfusion of in the hepatic portal vein and mesenteric venules ([Lewis, 2001]). Animal procedures were reviewed and approved by the Facility Animal Care Committee of McGill University (Protocol No. 3346) and were conducted in accordance with the guidelines of the Canadian Council on Animal Care.
as §1

Setting [3] is: secondary screen, 24h exposure, read at D1, 1 µM.
Where [4] appears, read: secondary screen, 24h exposure, read at D1, 10 µM.
[5] abbreviates: secondary screen, 24h exposure, read at D5, 1 µM.
The mark [6] stands for this setting: secondary screen, 24h exposure, read at D5, 10 µM.

In the case of `c1cc(-c2cnn3cc(-c4ccc(N5CCNCC5)cc4)cnc23)c2cccnc2c1` [LDN-212854], in series [1], the “Viability (%)” value is on record as 0%. The Phenotype result in series [1] is “dark, granulated”. The Fractional motility in series [2] (1h exposure, read at D1, 10 µM) is reported as 9.63; in series [2] (1h exposure, read at D5, 10 µM), -0.87; in series [2] (3h exposure, read at D1, 10 µM), -0.97; in series [2] (3h exposure, read at D5, 10 µM), -0.97; in series [2] (6h exposure, read at D1, 10 µM), -0.98; in series [2] (6h exposure, read at D5, 10 µM), -0.92. Moreover, the Fractional motility is on record as 3.02 in series [2] (setting [3]); 11.26 in series [2] (setting [4]); -0.46 in series [2] (setting [5]); -0.80 in series [2] (setting [6]); 0.29 in the series on S. mansoni adult worms (D1, Female adult worms); 0.78 in the series with S. mansoni adult worms (D1, Male adult worms). Besides, the Fractional motility in the series on S. mansoni adult worms (D5, Female adult worms) is -0.84; in the series with S. mansoni adult worms (D5, Male adult worms), -0.87. The “motility in extended assay with reduced incubation times, in words” value in series [2] (three-day old schistosomulae, incubation 1 h, 3 h, 6 h) is “significant and sustained hypomotility”. For the same molecule, in the series on S. mansoni adult worms, the “motility phenotype in words” value is “Significant hypomotility”.
Consider `CCCCCCCCCCCCCCCCn1cc[n+](Cc2ccccc2)c1C.[I-]` [NH125], for which, in series [1], the “Viability (%)” value is 18%. For the same molecule, in series [1], the Phenotype entry is recorded as “big, dark, granulated”. The Fractional motility is given as 1.58 in series [2] (setting [3]); -0.66 in series [2] (setting [4]); -0.08 in series [2] (setting [5]); -0.55 in series [2] (setting [6]); -0.74 in the series with S. mansoni adult worms (D1, Female adult worms); 0.53 with S. mansoni adult worms (D1, Male adult worms). The Fractional motility in the series on S. mansoni adult worms (D5, Female adult worms) is on record as -0.89; in the series on S. mansoni adult worms (D5, Male adult worms), -0.87. Moreover, the “motility phenotype in words” value with S. mansoni adult worms is listed as “Significant hypomotility”.
`C/C(=N\NC(=S)N1CCC1)c1ccccn1` [NSC319726]: in series [1], the “Viability (%)” value is recorded as 68%. Also, the Phenotype entry in series [1] is recorded as “dark, granulated”. Further, the Fractional motility is on record as 0.0562 in series [2] (setting [3]); 0.59 in series [2] (setting [4]); -0.75 in series [2] (setting [5]); -0.93 in series [2] (setting [6]); -0.13 in the series on S. mansoni adult worms (D1, Female adult worms); -0.16 in the series on S. mansoni adult worms (D1, Male adult worms). Further, the Fractional motility with S. mansoni adult worms (D5, Female adult worms) is listed as -0.84; with S. mansoni adult worms (D5, Male adult worms), -0.08.
In the case of `CC(=O)c1cc([N+](=O)[O-])c(Sc2ccc(F)cc2F)s1` [P22077], the “Viability (%)” value in series [1] is 5%. Moreover, the Phenotype entry in series [1] is “dark, granulated”. Besides, the Fractional motility in series [2] (1h exposure, read at D1, 10 µM) is recorded as 0.71; in series [2] (1h exposure, read at D5, 10 µM), 0.10; in series [2] (3h exposure, read at D1, 10 µM) it was 3.24; in series [2] (3h exposure, read at D5, 10 µM) it was -0.09; in series [2] (6h exposure, read at D1, 10 µM), 10.22; in series [2] (6h exposure, read at D5, 10 µM), -0.30. Also, the Fractional motility is given as -0.36 in series [2] (setting [3]); 2.27 in series [2] (setting [4]); -0.61 in series [2] (setting [5]); -0.98 in series [2] (setting [6]); -0.33 in the series on S. mansoni adult worms (D1, Female adult worms); -0.12 in the series with S. mansoni adult worms (D1, Male adult worms). Also, the Fractional motility is -0.88 in the series with S. mansoni adult worms (D5, Female adult worms) and -0.79 in the series with S. mansoni adult worms (D5, Male adult worms). Besides, in the series on S. mansoni adult worms, the “motility phenotype in words” value is on record as “severely paralyzed adults”.
In the case of `Cc1cnc(-c2cc(N3CCN(C(=O)CCS(C)(=O)=O)CC3)ncc2Cl)c(C)c1` [PF-5274857], the “Viability (%)” value in series [1] is listed as 96.5%. For the same molecule, the Phenotype result in series [1] is recorded as “granulated”. Moreover, the Fractional motility in series [2] (setting [3]) is -0.26; in series [2] (setting [4]), 0.15; in series [2] (setting [5]) it was -0.49; in series [2] (setting [6]) it was 4.02; in the series on S. mansoni adult worms (D1, Female adult worms), -0.02; in the series with S. mansoni adult worms (D1, Male adult worms) it was -0.62. Moreover, the Fractional motility is -0.13 in the series on S. mansoni adult worms (D5, Female adult worms) and -0.56 in the series with S. mansoni adult worms (D5, Male adult worms).
For the molecule `O=C(/C=C/c1ccc2ccccc2n1)c1ccncc1` [PFK15], the “Viability (%)” value in series [1] is given as 63%. Moreover, the Phenotype result in series [1] is given as “dark, granulated”. Besides, the Fractional motility in series [2] (setting [3]) was 1.64; in series [2] (setting [4]), 3.41; in series [2] (setting [5]) it was -0.50; in series [2] (setting [6]), -0.80; in the series on S. mansoni adult worms (D1, Female adult worms) it was -0.30; with S. mansoni adult worms (D1, Male adult worms), 4.15. Further, the Fractional motility is given as -0.50 in the series on S. mansoni adult worms (D5, Female adult worms) and 0.98 in the series with S. mansoni adult worms (D5, Male adult worms).
Turning to `N#CSc1cc(SC#N)c(N)nc1N` [PR-619], the “Viability (%)” value in series [1] is listed as 54,5%. The Phenotype entry in series [1] is reported as “dark, granulated”. For the same molecule, the Fractional motility in series [2] (setting [3]) is listed as 2.00; in series [2] (setting [4]) it was 0.27; in series [2] (setting [5]) it was 0.18; in series [2] (setting [6]) it was -0.76; with S. mansoni adult worms (D1, Female adult worms), 0.35; with S. mansoni adult worms (D1, Male adult worms) it was 0.35. Besides, the Fractional motility with S. mansoni adult worms (D5, Female adult worms) was -0.88; in the series with S. mansoni adult worms (D5, Male adult worms), -0.93. For the same molecule, in the series on S. mansoni adult worms (adult male and female parasites, long-term), the hypomotility was 94.5%. Besides, the “motility phenotype in words” value with S. mansoni adult worms is recorded as “severely paralyzed adults”.
Take `NS(=O)(=O)C#Cc1ccccc1` [Pifithrin-μ]: the “Viability (%)” value in series [1] was 0%. Moreover, the Phenotype result in series [1] is reported as “big , dark, granulated”. Moreover, the Fractional motility in series [2] (setting [3]) is listed as 1.37; in series [2] (setting [4]), 2.61; in series [2] (setting [5]), -0.80; in series [2] (setting [6]), -1.00; with S. mansoni adult worms (D1, Female adult worms), -0.0347; with S. mansoni adult worms (D1, Male adult worms) it was -0.36. The Fractional motility with S. mansoni adult worms (D5, Female adult worms) is -0.90; in the series with S. mansoni adult worms (D5, Male adult worms), -0.23.
For the molecule `O=C(Nc1ccccc1-c1cn2c(CN3CCNCC3)csc2n1)c1cnc2ccccc2n1` [SRT1720], the “effect on viability of schistosomulae in words” value in series [1] (24 h incubation, five days) is listed as “lethal”. The “Viability (%)” value in series [1] was 0%. Also, the Phenotype result in series [1] is on record as “dark, granulated”. Besides, the Fractional motility in series [2] (setting [3]) is given as 20.54; in series [2] (setting [4]), -1.00; in series [2] (setting [5]), 0.36; in series [2] (setting [6]) it was -1.00; with S. mansoni adult worms (D1, Female adult worms), 3.42; in the series on S. mansoni adult worms (D1, Male adult worms), 2.50. In addition, the Fractional motility with S. mansoni adult worms (D5, Female adult worms) amounted to 0.62; with S. mansoni adult worms (D5, Male adult worms), 1.34.
As for HO-3867, in series [1], the “Viability (%)” value is on record as 42,5%. Besides, the Phenotype entry in series [1] is listed as “dark, granulated”. For the same molecule, the Fractional motility is given as 1.63 in series [2] (1h exposure, read at D1, 10 µM); -0.56 in series [2] (1h exposure, read at D5, 10 µM); -0.41 in series [2] (3h exposure, read at D5, 10 µM); -0.37 in series [2] (6h exposure, read at D1, 10 µM); -0.0245 in series [2] (6h exposure, read at D5, 10 µM); 1.34 in series [2] (setting [3]). Moreover, the Fractional motility is 2.56 in series [2] (setting [4]); 1.27 in series [2] (setting [5]); -0.58 in series [2] (setting [6]); 0.32 in the series on S. mansoni adult worms (D1, Female adult worms); 0.13 with S. mansoni adult worms (D1, Male adult worms); -0.89 in the series on S. mansoni adult worms (D5, Female adult worms). In addition, the Fractional motility in the series with S. mansoni adult worms (D5, Male adult worms) was -0.84. Moreover, the “motility phenotype in words” value in the series with S. mansoni adult worms was “Significant hypomotility”.
